From US20250044306A1, “Methods for Determining Opioid Responsiveness in the Treatment of Pain” (priority 2021, published 2025)
“And” between values parts separate entries of the source, which are not always exact repeats. Identical values can stand only once.

Key:
[1] = tested on: thermal hyperalgesia in SCI animals; test: Tail flick thermal nociception in contusion SCI rats; type: in vivo, Long-Evans rats; conditions: for % analgesia (maximum possible effect, MPE), tail flick latency: drug alone, s.c. 30 mins prior to testing, morphine 2 mg/kg; for % Analgesia scores, injection of drug alone, compared to morphine alone (52.01%) / % analgesia (MPE), tail flick latency, drug added to morphine: rat, in vivo
[2] = biological target: DIR receptor (Homo sapiens, UniProt P21728); conditions: Millan, Maiofiss et al. 2002; Chen, Collins et al. 2008; cited from earlier work
DIR receptor, sequence (P21728 whole entry): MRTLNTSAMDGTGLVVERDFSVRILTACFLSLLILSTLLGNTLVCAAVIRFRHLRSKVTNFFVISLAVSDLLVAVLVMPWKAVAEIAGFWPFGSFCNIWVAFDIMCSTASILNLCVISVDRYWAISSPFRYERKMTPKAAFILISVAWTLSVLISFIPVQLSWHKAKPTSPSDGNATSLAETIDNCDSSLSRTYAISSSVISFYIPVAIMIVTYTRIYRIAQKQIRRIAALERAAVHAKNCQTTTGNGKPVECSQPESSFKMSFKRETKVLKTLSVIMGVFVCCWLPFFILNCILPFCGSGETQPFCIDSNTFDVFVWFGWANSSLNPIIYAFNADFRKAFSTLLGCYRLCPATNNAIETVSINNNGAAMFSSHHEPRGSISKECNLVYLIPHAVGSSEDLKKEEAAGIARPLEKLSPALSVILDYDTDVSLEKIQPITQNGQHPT

[3] = tested on: patients with pain; conditions: clinical study using morphine to treat pain; cited from earlier work
[4] = tested on: thermal hyperalgesia in SCI animals; conditions: rodent SCI model; Rodgers et al. 2019, 2020; cited from earlier work
[5] = morphine nonresponsive SCI animals (n=18), pramipexole 0.1 mg/kg, SCH 39166 0.1 mg/kg

Structure (SMILES)	% analgesia (maximum possible effect, MPE), tail flick latency [1, 5]	% Analgesia scores, injection of drug alone, compared to morphine alone (52.01%) [1]	% analgesia (MPE), tail flick latency, drug added to morphine [1]	Binding to the DIR receptor [2]	Share of SCI animals in which an acute injection of morphine provided analgesia ([1]; morphine 2 mg/kg s.c., n=8 of 26 SCI animals)	% analgesia (maximum possible effect, MPE), tail flick latency ([1]; morphine responsive SCI animals (n=8))	Patients who continued morphine treatment for pain management for more than 12 months [3]	Patients who failed to respond to morphine treatment [3]	Share of SCI animals responsive to morphine (earlier studies) [4]
CCCN[C@H]1CCc2nc(N)sc2C1 [pramipexole]	−7.27%±11.06	12.87%±15.84	96.98%±1.985 and 64.38%±10.37	–	–	–	–	–	–
CN1CC[C@]23c4c5ccc(O)c4O[C@H]2[C@@H](O)C=C[C@H]3[C@H]1C5 [morphine]	−24.48%±6.241	–	–	neither morphine nor pramipexole bind to the DIR receptor	one third	52.01%±3.494	15%	more than 50%	⅓ and one third
CN1CCc2cc(Cl)c(O)cc2[C@H]2c3ccccc3CC[C@@H]21 [SCH 39166]	−37.5%±6.99	−21.07%±10.46	18.79%±13.547 and 29.56%+11.51	–	–	–	–	–	–
